Earlier results, collected in patent US9358096B2, “Methods of treatment with drug eluting stents with prolonged local elution profiles with high local concentrations and low systemic concentrations” (Abbott Laboratories, priority 2007, dated 2016).

How the values were obtained:
[1] = cited from earlier work
[2] = kidney transplant recipients; usual oral dose of sirolimus of 2 mg per day; cited from earlier work

## CO[C@H]1C[C@@H]2CC[C@@H](C)[C@@](O)(O2)C(=O)C(=O)N2CCCC[C@H]2C(=O)O[C@H]([C@H](C)C[C@@H]2CC[C@@H](O)[C@H](OC)C2)CC(=O)[C@H](C)/C=C(\C)[C@@H](O)[C@@H](OC)C(=O)[C@H](C)C[C@H](C)/C=C/C=C/C=C/1C [sirolimus]
[1]; after receiving three 80 mm stents configured as stent 1
  peak concentration of sirolimus, one patient: 35.5 ng/mL
[1]; patients treated with stent 1, one hour after stenting
  mean systemic sirolimus concentration: 20.4 ± 10.0 ng/mL
[2]
  trough concentration: 9 ng/mL
